Laboratory results: patent US20060069132A1, “Azolecarboxamide herbicides” (priority 2004, published 2006)
Read-outs that look alike come from different tables or passages of the source.

Assays:
woolly cupgrass = assay: Test C pre-/postemergence herbicide test; assay type: in vivo, Eriochloa villosa; conditions: for pest or weed control at 250 g/ha: 250 g ai/ha; for pest or weed control at 125 g/ha: 125 g ai/ha
How it was run: (§1)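 Emerged plants at the 1- to 4-leaf stage (2–18 cm), or freshly planted seeds, received test chemicals in a non-phytotoxic solvent mixture with surfactant. Response was visually scored against controls after 12 to 14 days in the greenhouse, on a 0 (no effect) to 100 (complete control) scale.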

barnyardgrass = assay: Test A pre-/postemergence herbicide test; assay type: in vivo, Echinochloa crus-galli; conditions: Echinochloa crus-galli, 240 h; for pest or weed control at 500 g/ha: 500 g ai/ha; for pest or weed control at 2000 g/ha: 2000 g ai/ha
How it was run: (§2)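 Both application timings were run together: directed soil spray over freshly planted seeds in sandy loam, and runoff spray onto 2–10 cm seedlings. Evaluation after ~10 days in greenhouse used a 0–100 visual scale versus untreated controls.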

blackgrass = assay: Test B postemergence herbicide test; assay type: in vivo, Alopecurus myosuroides; conditions: scale 0 (no effect) to 100 (complete control)
How it was run: (§3)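 Treated at 2-leaf (paddy) or 1–4-leaf, 2–18 cm (postemergence); greenhouse 13–15 d; visual score vs control, 0 none to 100 complete control; dash = not tested.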

goosegrass = assay: Test C pre-/postemergence herbicide test; assay type: in vivo, Eleusine indica; conditions: for pest or weed control at 125 g/ha: 125 g ai/ha
How it was run: as §1

bermudagrass = assay: Test C pre-/postemergence herbicide test; assay type: in vivo, Cynodon dactylon; conditions: for pest or weed control at 250 g/ha: 250 g ai/ha; for pest or weed control at 125 g/ha: 125 g ai/ha
How it was run: as §1

large crabgrass = assay: Test A pre-/postemergence herbicide test; assay type: in vivo, Digitaria sanguinalis; conditions: Digitaria sanguinalis, 240 h; for pest or weed control at 500 g/ha: 500 g ai/ha; for pest or weed control at 2000 g/ha: 2000 g ai/ha
How it was run: as §2

[1] = system: small flower umbrella sedge; assay: Test B flooded paddy test; assay type: in vivo, Cyperus difformis; conditions: Cyperus difformis, 336 h, 1000 g ai/ha, visual rating, scale 0 to 100 (0 no effect, 100 complete control), 13 to 15 days, read-out: Sedge, Umbrella plant response rating
How it was run: as §3

redroot pigweed = assay: Test A pre-/postemergence herbicide test; assay type: in vivo, Amaranthus retroflexus; conditions: Amaranthus retroflexus, 240 h; for pest or weed control at 500 g/ha: 500 g ai/ha; for pest or weed control at 2000 g/ha: 2000 g ai/ha
How it was run: as §2

rice = assay: Test C flooded paddy test; assay type: in vivo, Oryza sativa; conditions: Oryza sativa
How it was run: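 Plants were grown to the 1- to 4-leaf stage (2–18 cm) and then treated postemergence, or grown to the 2-leaf stage for the flooded paddy test. They were held in a greenhouse for 12 to 14 days and then scored by eye against controls, where 0 is no effect and 100 is complete control.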

[2] = post-emergence, Postemergence, 0 to 100 scale, 0 no effect, 100 complete control, read-out: Plant response rating, Barnyardgrass
[3] = post-emergence, Postemergence, 0 to 100 scale, 0 no effect, 100 complete control, read-out: Plant response rating, Crabgrass, Large
[4] = post-emergence, Postemergence, 0 to 100 scale, 0 no effect, 100 complete control, read-out: Plant response rating, Pigweed

**Q.** Which results are given for `CCOC(=O)c1cccc(NC(=O)c2cc(C(C)(C)C)nn2CC)c1` [Compound 80, ethyl 3-[[[3-(1,1-dimethylethyl)-1-ethyl-1H-pyrazol-5-yl]carbonyl]-amino]benzoate]?
**A.** Plant response rating (0 = no effect, 100 = complete control), Cupgrass, Woolly (woolly cupgrass; 62 g ai/ha, preemergence): 0; pest or weed control at 250 g/ha (woolly cupgrass; Eriochloa villosa, post-emergence, 312 h, Postemergence, scale 0 to 100, 0 no effect, 100 complete control, read-out: Plant response rating, Cupgrass, Woolly): 90%; pest or weed control at 125 g/ha (woolly cupgrass; Eriochloa villosa, post-emergence, 312 h, postemergence, scale 0 to 100, read-out: Plant response rating, Cupgrass, Woolly): 90%; pest or weed control at 62 g/ha (woolly cupgrass; Eriochloa villosa, post-emergence, 312 h, postemergence, 62 g ai/ha, scale 0 to 100, read-out: Plant response rating, Cupgrass, Woolly): 80%; pest or weed control at 31 g/ha (woolly cupgrass; Eriochloa villosa, pre-emergence, 312 h, 31 g ai/ha, preemergence, scale 0 to 100, read-out: Plant response rating, Cupgrass, Woolly): 0%; pest or weed control at 125 g/ha (woolly cupgrass; Eriochloa villosa, pre-emergence, 312 h, scale 0 (no effect) to 100 (complete control), visual, 12 to 14 days, read-out: Plant response rating, Cupgrass, Woolly): 10%; pest or weed control at 250 g/ha (woolly cupgrass; Eriochloa villosa, pre-emergence, 312 h, scale 0 to 100 (0 no effect, 100 complete control), visual, 12 to 14 days, read-out: Plant response rating, Cupgrass, Woolly): 10%; pest or weed control at 500 g/ha (barnyardgrass; [2]): 90%; pest or weed control at 2000 g/ha (barnyardgrass; [2]): 90%; pest or weed control at 500 g/ha (barnyardgrass; pre-emergence, Preemergence, visual rating, 0 to 100 scale (0 no effect, 100 complete control), read-out: Barnyardgrass plant response rating): 10%; pest or weed control at 2000 g/ha (barnyardgrass; pre-emergence, Preemergence, 0 to 100 scale, 0 no effect, 100 complete control, read-out: Barnyardgrass plant response rating): 35%; pest or weed control at 125 g/ha (blackgrass; Alopecurus myosuroides, post-emergence, 336 h, postemergence, 125 g ai/ha, visual rating, read-out: Blackgrass plant response rating): 20%; Plant response rating, Blackgrass (blackgrass; Postemergence, 500 g ai/ha, visual rating after 13 to 15 days): 40; Plant response rating (0 = no effect, 100 = complete control), Goosegrass (goosegrass; 62 g ai/ha, preemergence): 10; pest or weed control at 250 g/ha (goosegrass; Eleusine indica, post-emergence, 312 h, Postemergence, 250 g ai/ha, scale 0 to 100, 0 no effect, 100 complete control, read-out: Plant response rating, Goosegrass): 80%; pest or weed control at 125 g/ha (goosegrass; Eleusine indica, post-emergence, 312 h, postemergence, scale 0 to 100, read-out: Plant response rating, Goosegrass): 80%; pest or weed control at 62 g/ha (goosegrass; Eleusine indica, post-emergence, 312 h, postemergence, 62 g ai/ha, scale 0 to 100, read-out: Plant response rating, Goosegrass): 80%; pest or weed control at 31 g/ha (goosegrass; Eleusine indica, pre-emergence, 312 h, 31 g ai/ha, preemergence, scale 0 to 100, read-out: Plant response rating, Goosegrass): 10%; pest or weed control at 125 g/ha (goosegrass; Eleusine indica, pre-emergence, 312 h, scale 0 (no effect) to 100 (complete control), visual, 12 to 14 days, read-out: Plant response rating, Goosegrass): 10%; Plant response rating (0 = no effect, 100 = complete control), Bermudagrass (bermudagrass; 62 g ai/ha, preemergence): 10; pest or weed control at 250 g/ha (bermudagrass; Cynodon dactylon, post-emergence, 312 h, Postemergence, scale 0 to 100, read-out: Bermudagrass plant response rating): 100%; pest or weed control at 125 g/ha (bermudagrass; Cynodon dactylon, post-emergence, 312 h, postemergence, scale 0 to 100, read-out: Plant response rating, Bermudagrass): 100%; pest or weed control at 31 g/ha (bermudagrass; Cynodon dactylon, pre-emergence, 312 h, 31 g ai/ha, preemergence, scale 0 to 100, read-out: Plant response rating, Bermudagrass): 0%; pest or weed control at 125 g/ha (bermudagrass; Cynodon dactylon, pre-emergence, 312 h, scale 0 (no effect) to 100 (complete control), visual, 12 to 14 days, read-out: Plant response rating, Bermudagrass): 10%; pest or weed control at 250 g/ha (bermudagrass; Cynodon dactylon, pre-emergence, 312 h, scale 0 to 100 (0 no effect, 100 complete control), visual, 12 to 14 days, read-out: Plant response rating, Bermudagrass): 10%; pest or weed control at 500 g/ha (large crabgrass; [3]): 70%; pest or weed control at 2000 g/ha (large crabgrass; [3]): 90%; pest or weed control at 500 g/ha (large crabgrass; pre-emergence, Preemergence, visual rating, 0 to 100 scale (0 no effect, 100 complete control), read-out: Crabgrass, Large plant response rating): 10%; pest or weed control at 2000 g/ha (large crabgrass; pre-emergence, Preemergence, 0 to 100 scale, 0 no effect, 100 complete control, read-out: Crabgrass, Large plant response rating): 30%; pest or weed control at 1000 g/ha [1]: 80%; pest or weed control at 500 g/ha (redroot pigweed; [4]): 100%; pest or weed control at 2000 g/ha (redroot pigweed; [4]): 100%; pest or weed control at 500 g/ha (redroot pigweed; pre-emergence, Preemergence, visual rating, 0 to 100 scale (0 no effect, 100 complete control), read-out: Pigweed plant response rating): 70%; pest or weed control at 2000 g/ha (redroot pigweed; pre-emergence, Preemergence, 0 to 100 scale, 0 no effect, 100 complete control, read-out: Pigweed plant response rating): 90%; plant injury at 62 g/ha (rice; 62 g ai/ha, scale 0 to 100 (0 no effect, 100 complete control), read-out: Rice plant response rating): 20%; plant injury at 125 g/ha (rice; 125 g ai/ha, scale of 0 to 100, 0 is no effect, 100 is complete control, read-out: Rice plant response rating): 40%; plant injury at 250 g/ha (rice; 250 g ai/ha, scale of 0 to 100, 0 is no effect, 100 is complete control, read-out: Rice plant response rating): 40%; plant injury at 500 g/ha (rice; 500 g ai/ha, visual rating after 12 to 14 days, scale 0 to 100 (0 no effect, 100 complete control), read-out: Plant response rating, Rice): 40%
